IC50 and melting point data for 27 molecules are collected here from patent US8735414B2 (priority 2009, dated 2014).

In data set [1] the test system is bicistronic HCV replicon (replicon RNA, GenBank Accession No. AJ242654). In words: HCV Replicon Assay. In kind it is cell-based. As to conditions: Hepatitis C virus, 72 h, read-out: Replicon IC50.

What is called IC50 is the concentration that gives 50% inhibition. By melting point is commonly meant the temperature, or range, at which the solid turns liquid. Consider `Cc1cc2c(cc1F)c(C(N)=O)c(-c1ccc(S(N)(=O)=O)cn1)n2C1CCCCC1` [compound 715, 1-cyclohexyl-5-fluoro-6-methyl-2-(5-sulfamoylpyridin-2-yl)-1H-indole-3-carboxamide], for which the melting point is 254 to 257 °C. The IC50 in data set [1] is under 500 nM.

`Cc1ccc2c(C#N)c(-c3ncc(S(=O)(=O)NC(C)C)cn3)n(C3CCC3)c2c1` [compound 169, 2-(3-cyano-1-cyclobutyl-6-methyl-1H-indol-2-yl)-N-(propan-2-yl)pyrimidine-5-sulfonamide] came in with a melting point of 217 to 219 °C. Besides, in data set [1], the IC50 was under 500 nM.

Consider `CC(C)n1c(-c2ccc(S(=O)(=O)N[C@@H](C)C(F)(F)F)cn2)c(C#N)c2ccc(OC(F)F)cc21` [compound 359, 6-[3-cyano-6-(difluoromethoxy)-1-(propan-2-yl)-1H-indol-2-yl]-N-[(2S)-1,1,1-trifluoropropan-2-yl]pyridine-3-sulfonamide], for which the melting point was 163 to 166 °C. In data set [1], the IC50 is under 500 nM.

For the molecule `Cc1ccc2c(C#N)c(-c3ccc(S(=O)(=O)NC(C)(C)C(F)(F)F)cn3)n(C3CCC3)c2c1F` [compound 578, 6-(3-cyano-1-cyclobutyl-7-fluoro-6-methyl-1H-indol-2-yl)-N-(1,1,1-trifluoro-2-methylpropan-2-yl)pyridine-3-sulfonamide], the melting point was in the range of 168 to 175 °C. The IC50 in data set [1] is under 500 nM.

In the case of `Cc1cc2c(cc1F)c(C#N)c(-c1ccc(S(=O)(=O)N[C@@H](C)C(F)(F)F)cn1)n2-c1cccs1` [compound 990, 6-[3-cyano-5-fluoro-6-methyl-1-(thiophen-2-yl)-1H-indol-2-yl]-N-[(2S)-1,1,1-trifluoropropan-2-yl]pyridine-3-sulfonamide], the melting point fell in the range of 233 to 240 °C. Further, the IC50 in data set [1] was under 500 nM.

The molecule `CC(C)NS(=O)(=O)c1cnc(-c2c(C#N)c3ccc(OC(F)F)cc3n2C2CCCCC2)nc1` [compound 473, 2-[3-cyano-1-cyclohexyl-6-(difluoromethoxy)-1H-indol-2-yl]-N-(propan-2-yl)pyrimidine-5-sulfonamide] had a melting point of 176 to 179 °C. Further, the concentration for half-maximal inhibition (IC50) in data set [1] was under 500 nM.

Molecule `Cc1cc2c(cc1F)c(C#N)c(-c1ccc(S(=O)(=O)N[C@@H](C)C(F)(F)F)cn1)n2-c1ncccc1C` [compound 739, 6-[3-cyano-5-fluoro-6-methyl-1-(3-methylpyridin-2-yl)-1H-indol-2-yl]-N-[(2S)-1,1,1-trifluoropropan-2-yl]pyridine-3-sulfonamide] had a melting point of 219 to 221 °C. For the same molecule, the IC50 in data set [1] is under 500 nM.

`CCn1c(-c2ccc(NS(=O)(=O)C(C)C)cn2)c(C#N)c2ccc(OC(C)C)cc21` [compound 286, N-{6-[3-cyano-1-ethyl-6-(propan-2-yloxy)-1H-indol-2-yl]pyridin-3-yl}propane-2-sulfonamide]: the melting point was 180 to 185 °C. The IC50 in data set [1] is 500 to 2000 nM.

Take `N#Cc1c(-c2ccc(S(N)(=O)=O)cn2)n(CC2CC2)c2cc(OC(F)F)c(F)cc12` [compound 812, 6-[3-cyano-1-(cyclopropylmethyl)-6-(difluoromethoxy)-5-fluoro-1H-indol-2-yl]pyridine-3-sulfonamide]: the melting point was 173 to 178 °C. Besides, the IC50 in data set [1] was 2000 to 5000 nM.

In turn, `N#Cc1c(-c2ccc(S(=O)(=O)NC(CF)CF)cn2)n(C2CCCC2)c2c(F)cccc12` [compound 87, 6-(3-cyano-1-cyclopentyl-7-fluoro-1H-indol-2-yl)-N-(1,3-difluoropropan-2-yl)pyridine-3-sulfonamide] displayed a melting point of 128 to 129 °C. For the same molecule, the IC50 in data set [1] is under 500 nM.

With `N#Cc1c(-c2ccc(S(=O)(=O)NC(CF)CF)cn2)n(C2CCOC2)c2ccc(F)cc12` (stereo not drawn) [compound 46, 6-[3-cyano-5-fluoro-1-(tetrahydrofuran-3-yl)-1H-indol-2-yl]-N-(1,3-difluoropropan-2-yl)pyridine-3-sulfonamide], the melting point lay within 194 to 197 °C. Besides, the IC50 in data set [1] is under 500 nM.

`CC(C)(NS(=O)(=O)c1ccc(-c2c(C#N)c3c(F)cc(C4CC4)cc3n2-c2ncccn2)nc1)C(F)(F)F` [compound 1098, 6-[3-cyano-6-cyclopropyl-4-fluoro-1-(pyrimidin-2-yl)-1H-indol-2-yl]-N-(1,1,1-trifluoro-2-methylpropan-2-yl)pyridine-3-sulfonamide] came in with a melting point of 198 to 200 °C. Besides, in data set [1], the IC50 was in the range of 500 to 2000 nM.

`Cc1ccc2c(C#N)c(-c3ncc(S(=O)(=O)NC(CF)CF)cn3)n(C3CCC3)c2c1` [compound 132, 2-(3-cyano-1-cyclobutyl-6-methyl-1H-indol-2-yl)-N-(1,3-difluoropropan-2-yl)pyrimidine-5-sulfonamide] showed a melting point of 236 to 238 °C. The IC50 in data set [1] is under 500 nM.

`Cc1cc2c(cc1F)c(C#N)c(-c1ccc(S(=O)(=O)N[C@@H](C)C(F)(F)F)cn1)n2C1CCCC1` [compound 408, 6-(3-cyano-1-cyclopentyl-5-fluoro-6-methyl-1H-indol-2-yl)-N-[(2S)-1,1,1-trifluoropropan-2-yl]pyridine-3-sulfonamide]: the melting point is 168 to 171 °C. For the same molecule, in data set [1], the half-inhibitory concentration (IC50) is under 500 nM.

The molecule `N#Cc1c(-c2ccc(S(=O)(=O)NC(CF)CF)cn2)n(C2CCCC2)c2cc(OC(F)(F)F)ccc12` [compound 70, 6-[3-cyano-1-cyclopentyl-6-(trifluoromethoxy)-1H-indol-2-yl]-N-(1,3-difluoropropan-2-yl)pyridine-3-sulfonamide] showed a melting point of 141 to 143 °C. Besides, the IC50 in data set [1] was under 500 nM.

Regarding `Cc1ccc2c(C#N)c(-c3ncc(S(=O)(=O)N[C@H](C)C(F)(F)F)cn3)n(C3CCCC3)c2c1` [compound 182, 2-(3-cyano-1-cyclopentyl-6-methyl-1H-indol-2-yl)-N-[(2R)-1,1,1-trifluoropropan-2-yl]pyrimidine-5-sulfonamide], the melting point lay within 116 to 118 °C. For the same molecule, the IC50 in data set [1] is under 500 nM.

In turn, `Cc1cc2c(cc1Cl)c(C(N)=O)c(-c1ccc(S(=O)(=O)N[C@@H](C)C(F)(F)F)cn1)n2C1CCC1` [compound 734, 5-chloro-1-cyclobutyl-6-methyl-2-(5-{[(2S)-1,1,1-trifluoropropan-2-yl]sulfamoyl}pyridin-2-yl)-1H-indole-3-carboxamide] gave a melting point of 207 to 209 °C. Also, the IC50 in data set [1] is under 500 nM.

The molecule `Cc1cc2c(cc1F)c(C#N)c(-c1ccc(S(=O)(=O)N[C@@H](C)C(F)(F)F)cn1)n2-c1cncs1` [compound 973, 6-[3-cyano-5-fluoro-6-methyl-1-(1,3-thiazol-5-yl)-1H-indol-2-yl]-N-[(2S)-1,1,1-trifluoropropan-2-yl]pyridine-3-sulfonamide] gave a melting point of 234 to 238 °C. Moreover, in data set [1], the IC50 was under 500 nM.

Consider `Cc1c(F)cc2c(c1F)c(C#N)c(-c1ccc(S(=O)(=O)NC(CF)CF)cn1)n2C1CCCC1` [compound 558, 6-(3-cyano-1-cyclopentyl-4,6-difluoro-5-methyl-1H-indol-2-yl)-N-(1,3-difluoropropan-2-yl)pyridine-3-sulfonamide], for which the melting point fell in the range of 214 to 219 °C. Also, in data set [1], the IC50 was under 500 nM.

`Cc1cc2c(cc1F)c(C#N)c(-c1ccc(S(=O)(=O)NC(C)(C)C(F)(F)F)cn1)n2C1CCCC1` [compound 681, 6-(3-cyano-1-cyclopentyl-5-fluoro-6-methyl-1H-indol-2-yl)-N-(1,1,1-trifluoro-2-methylpropan-2-yl)pyridine-3-sulfonamide] displayed a melting point of 223 to 225 °C. Besides, the IC50 in data set [1] is under 500 nM.

On to `CC(C)NS(=O)(=O)c1cnc(-c2c(C#N)c3ccc(F)cc3n2C2CCCCC2)nc1` [compound 251, 2-(3-cyano-1-cyclohexyl-6-fluoro-1H-indol-2-yl)-N-(propan-2-yl)pyrimidine-5-sulfonamide], for which the melting point was 200 to 202 °C. Besides, the IC50 in data set [1] is 500 to 2000 nM.

Consider `N#Cc1c(-c2ccc(NS(=O)(=O)C3CC3)cn2)n(C2CCCCC2)c2ccc(Cl)cc12` [compound 298, N-[6-(5-chloro-3-cyano-1-cyclohexyl-1H-indol-2-yl)pyridin-3-yl]cyclopropanesulfonamide], for which the melting point fell in the range of 230 to 235 °C. The concentration for half-maximal inhibition (IC50) in data set [1] was 500 to 2000 nM.

In the case of `N#Cc1c(-c2ccc(S(=O)(=O)NC(CF)CF)cn2)n(C2CCCC2)c2cc(CC(F)F)ccc12` [compound 593, 6-[3-cyano-1-cyclopentyl-6-(2,2-difluoroethyl)-1H-indol-2-yl]-N-(1,3-difluoropropan-2-yl)pyridine-3-sulfonamide], the melting point lay within 178 to 184 °C. Moreover, in data set [1], the IC50 was under 500 nM.

The molecule `CC(=O)N([C@H](C)C(F)(F)F)S(=O)(=O)c1ccc(-c2c(C#N)c3cc(F)c(C)cc3n2C2CCCC2)nc1` [compound 709, N-{[6-(3-cyano-1-cyclopentyl-5-fluoro-6-methyl-1H-indol-2-yl)pyridin-3-yl]sulfonyl}-N-[(2R)-1,1,1-trifluoropropan-2-yl]acetamide] displayed a melting point of 162 to 163 °C. Besides, the IC50 in data set [1] was under 500 nM.

On to `Cc1ccc2c(C#N)c(-c3ncc(S(=O)(=O)NC(CF)CF)cn3)n(C3CCCC3)c2c1F` [compound 586, 2-(3-cyano-1-cyclopentyl-7-fluoro-6-methyl-1H-indol-2-yl)-N-(1,3-difluoropropan-2-yl)pyrimidine-5-sulfonamide], for which the melting point fell in the range of 226 to 232 °C. Moreover, the IC50 in data set [1] was under 500 nM.

Turning to `Cc1ccc2c(c1)c(C#N)c(-c1ncc(S(=O)(=O)NC(CF)CF)cn1)n2CC1CC1` [compound 524, 2-[3-cyano-1-(cyclopropylmethyl)-5-methyl-1H-indol-2-yl]-N-(1,3-difluoropropan-2-yl)pyrimidine-5-sulfonamide], the melting point fell in the range of 151 to 155 °C. The concentration for half-maximal inhibition (IC50) in data set [1] was under 500 nM.

Molecule `Cc1cccc(-n2c(-c3ccc(S(=O)(=O)N[C@@H](C)C(F)(F)F)cn3)c(C#N)c3cc(F)c(C)cc32)n1` [compound 923, 6-[3-cyano-5-fluoro-6-methyl-1-(6-methylpyridin-2-yl)-1H-indol-2-yl]-N-[(2S)-1,1,1-trifluoropropan-2-yl]pyridine-3-sulfonamide] returned a melting point of 219 to 225 °C. In data set [1], the IC50 was under 500 nM.
